Measurements reported in patent publication US20250320193A1, “OXOISOINDOLINYL SUBSTITUTED PIPERIDINEDIONE DERIVATIVE AND USE THEREOF” (GLUETACS THERAPEUTICS (SHANGHAI) CO., LTD., priority 2022, published 2025).

Columns and labels:
[1] = target: human Cereblon WT GST-tagged protein (Homo sapiens (Human), UniProt Q96SW2); assay: CRBN-binding affinity, HTRF (CEREBLON BINDING kit, CISBIO); conditions: HTRF inhibitory activity
Method in brief: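 HTRF competition format: test compound displaces Thalidomide-Red from GST-tagged human Cereblon WT, detected with a Eu-labelled anti-GST antibody. Percent CRBN binding inhibition was derived from the 620 nm signal, normalized to solvent-control and protein-free blank wells.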

GSPT1 = GSPT1 (Homo sapiens (Human), UniProt P15170+Q96SW2); assay: Western blot, substrate protein expression in hPBMC: GSPT1; assay type: cell-based; conditions: hPBMC, compound 500 nM, 24 hours, Western blot
Method in brief: (§1)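 hPBMC, 1×10^6 cells/mL, 24 h compound exposure; RIPA lysis, BCA protein assay, SDS-PAGE, NC membrane immunoblot. Densitometry vs internal control → % protein remaining; degradation % = 100% − remaining; DC50 = conc. at 50% of DMSO band signal.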

IKZF1 = IKZF1 (Homo sapiens (Human), UniProt Q13422+Q96SW2); assay: Western blot, substrate protein expression in hPBMC: IKZF1; assay type: cell-based; conditions: hPBMC, compound 500 nM, 24 hours, Western blot
Method in brief: as §1

IKZF3 = IKZF3 (Homo sapiens (Human), UniProt Q96SW2+Q9UKT9); assay: Western blot, substrate protein expression in hPBMC: IKZF3; assay type: cell-based; conditions: hPBMC, compound 500 nM, 24 hours, Western blot
Method in brief: as §1

GSPT1, sequence (P15170 whole entry): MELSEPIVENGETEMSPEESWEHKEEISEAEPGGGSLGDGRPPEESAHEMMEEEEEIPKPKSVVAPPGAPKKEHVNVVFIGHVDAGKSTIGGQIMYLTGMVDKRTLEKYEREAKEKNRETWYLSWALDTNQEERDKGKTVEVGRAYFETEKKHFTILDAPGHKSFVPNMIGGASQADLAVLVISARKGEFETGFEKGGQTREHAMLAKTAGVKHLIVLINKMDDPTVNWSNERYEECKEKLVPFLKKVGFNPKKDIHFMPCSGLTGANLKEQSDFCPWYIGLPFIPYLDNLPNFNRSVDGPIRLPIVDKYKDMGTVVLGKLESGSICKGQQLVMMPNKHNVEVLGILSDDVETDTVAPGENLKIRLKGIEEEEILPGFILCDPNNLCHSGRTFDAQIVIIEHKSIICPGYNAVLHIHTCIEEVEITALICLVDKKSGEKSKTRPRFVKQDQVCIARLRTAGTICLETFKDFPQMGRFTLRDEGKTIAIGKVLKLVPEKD
GSPT1, sequence (Q96SW2 whole entry): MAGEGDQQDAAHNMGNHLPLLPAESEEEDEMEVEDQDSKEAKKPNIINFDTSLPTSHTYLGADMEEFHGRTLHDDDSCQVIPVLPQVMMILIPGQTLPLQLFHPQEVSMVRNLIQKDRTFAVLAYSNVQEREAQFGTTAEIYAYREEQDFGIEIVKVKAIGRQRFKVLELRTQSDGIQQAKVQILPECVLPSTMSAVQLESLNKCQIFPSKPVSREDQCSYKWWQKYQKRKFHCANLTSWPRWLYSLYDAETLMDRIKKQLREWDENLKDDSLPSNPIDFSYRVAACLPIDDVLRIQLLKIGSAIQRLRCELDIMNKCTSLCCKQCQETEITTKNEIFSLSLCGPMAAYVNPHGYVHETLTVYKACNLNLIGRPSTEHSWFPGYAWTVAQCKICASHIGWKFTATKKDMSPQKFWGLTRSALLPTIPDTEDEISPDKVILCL
GSPT1, sequence (Q16531 whole entry partner): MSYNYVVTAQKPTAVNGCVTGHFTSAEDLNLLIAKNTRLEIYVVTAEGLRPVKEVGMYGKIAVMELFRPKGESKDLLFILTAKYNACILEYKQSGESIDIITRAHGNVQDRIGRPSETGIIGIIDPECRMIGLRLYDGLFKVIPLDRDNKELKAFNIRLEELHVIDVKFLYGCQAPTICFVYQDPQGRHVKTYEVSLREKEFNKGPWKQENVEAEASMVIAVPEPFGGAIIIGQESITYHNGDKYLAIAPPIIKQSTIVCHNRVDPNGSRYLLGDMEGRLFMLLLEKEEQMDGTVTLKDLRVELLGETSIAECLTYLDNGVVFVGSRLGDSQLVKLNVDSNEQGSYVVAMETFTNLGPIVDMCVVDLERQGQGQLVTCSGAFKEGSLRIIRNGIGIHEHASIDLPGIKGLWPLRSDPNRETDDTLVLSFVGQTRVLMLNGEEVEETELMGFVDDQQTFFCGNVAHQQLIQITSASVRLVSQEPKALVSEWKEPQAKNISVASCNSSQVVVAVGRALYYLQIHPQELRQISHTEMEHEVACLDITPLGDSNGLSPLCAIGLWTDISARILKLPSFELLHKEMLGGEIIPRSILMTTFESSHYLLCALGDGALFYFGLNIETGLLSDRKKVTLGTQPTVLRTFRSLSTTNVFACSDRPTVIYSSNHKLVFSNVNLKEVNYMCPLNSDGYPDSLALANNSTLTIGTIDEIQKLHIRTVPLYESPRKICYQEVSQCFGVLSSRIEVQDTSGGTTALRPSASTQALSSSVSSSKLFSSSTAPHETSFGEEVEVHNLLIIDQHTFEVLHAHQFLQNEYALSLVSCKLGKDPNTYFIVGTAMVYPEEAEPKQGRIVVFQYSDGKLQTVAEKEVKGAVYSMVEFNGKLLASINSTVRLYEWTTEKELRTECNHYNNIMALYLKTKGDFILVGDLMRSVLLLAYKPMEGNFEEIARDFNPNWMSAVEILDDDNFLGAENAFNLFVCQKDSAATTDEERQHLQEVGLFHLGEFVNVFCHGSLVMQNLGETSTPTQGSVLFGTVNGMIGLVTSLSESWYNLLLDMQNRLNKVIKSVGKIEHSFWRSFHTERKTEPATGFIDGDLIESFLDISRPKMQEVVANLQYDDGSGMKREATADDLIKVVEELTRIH
human Cereblon WT GST-tagged protein, sequence (Q96SW2 whole entry): as the sequence (Q96SW2 whole entry) above
IKZF3, sequence (Q9UKT9 whole entry): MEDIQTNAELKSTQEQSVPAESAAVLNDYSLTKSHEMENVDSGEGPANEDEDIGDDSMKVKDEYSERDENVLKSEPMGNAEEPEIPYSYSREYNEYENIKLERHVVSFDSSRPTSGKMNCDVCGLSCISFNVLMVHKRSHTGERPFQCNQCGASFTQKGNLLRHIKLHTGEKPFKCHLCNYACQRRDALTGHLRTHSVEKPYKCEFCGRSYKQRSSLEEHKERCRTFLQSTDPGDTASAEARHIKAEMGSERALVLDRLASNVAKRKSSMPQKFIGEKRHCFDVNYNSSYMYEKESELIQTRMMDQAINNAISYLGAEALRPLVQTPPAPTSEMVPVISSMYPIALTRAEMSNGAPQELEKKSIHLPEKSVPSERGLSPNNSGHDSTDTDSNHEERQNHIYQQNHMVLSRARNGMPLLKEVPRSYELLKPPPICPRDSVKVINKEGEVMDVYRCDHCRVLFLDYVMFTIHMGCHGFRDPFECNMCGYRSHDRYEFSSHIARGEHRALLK
IKZF3, sequence (Q96SW2 whole entry): as the sequence (Q96SW2 whole entry) above
IKZF3, sequence (Q16531 whole entry partner): as the sequence (Q16531 whole entry partner) above
IKZF1, sequence (Q13422 whole entry): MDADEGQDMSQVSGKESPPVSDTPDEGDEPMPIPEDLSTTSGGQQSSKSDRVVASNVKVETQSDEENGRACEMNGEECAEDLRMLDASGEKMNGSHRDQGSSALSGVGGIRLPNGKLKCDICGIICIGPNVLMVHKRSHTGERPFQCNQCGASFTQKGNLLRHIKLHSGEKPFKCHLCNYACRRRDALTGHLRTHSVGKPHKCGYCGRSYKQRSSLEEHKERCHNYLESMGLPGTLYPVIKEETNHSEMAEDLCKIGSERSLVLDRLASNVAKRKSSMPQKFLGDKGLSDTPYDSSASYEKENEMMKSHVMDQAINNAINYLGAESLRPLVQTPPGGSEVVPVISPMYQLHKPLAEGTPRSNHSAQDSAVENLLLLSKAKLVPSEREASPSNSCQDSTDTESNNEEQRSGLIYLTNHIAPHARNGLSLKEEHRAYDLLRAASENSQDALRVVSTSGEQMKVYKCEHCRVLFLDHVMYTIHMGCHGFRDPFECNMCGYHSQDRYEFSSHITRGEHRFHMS
IKZF1, sequence (Q96SW2 whole entry): as the sequence (Q96SW2 whole entry) above
IKZF1, sequence (Q16531 whole entry partner): as the sequence (Q16531 whole entry partner) above

IC50 [1] [nM]	SMILES	substrate protein remaining % GSPT1 (GSPT1)	substrate protein remaining % IKZF1 (IKZF1)	substrate protein remaining % IKZF3 (IKZF3)
500 to 1000	CC1CN(C(c2ccccc2)c2ccccc2)CC(C)N1Cc1ccc2c(c1)CN(C1CCC(=O)NC1=O)C2=O (stereo not shown) [GT-03723, 3-(5-((4-benzhydryl-2,6-dimethylpiperazin-1-yl)methyl)-1-oxoisoindolin-2-yl)piperidine-2,6-dione]	A (A represents 0% ≤ substrate protein remaining % ≤ 50%)	B (B represents substrate protein remaining % > 50%)	B (B represents substrate protein remaining % > 50%)
< 500	CC1CN(C(c2ccccc2)c2ccccc2)CC(C)N1Cc1ccc2c(c1F)CN(C1CCC(=O)NC1=O)C2=O (stereo not shown) [GT-03726, 3-(5-((4-benzhydryl-2,6-dimethylpiperazin-1-yl)methyl)-4-fluoro-1-oxoisoindolin-2-yl)piperidine-2,6-dione]	A (A represents 0% ≤ substrate protein remaining % ≤ 50%)	B (B represents substrate protein remaining % > 50%)	B (B represents substrate protein remaining % > 50%)
500 to 1000	O=C1CCC(N2Cc3c(CN4CCN(C(c5ccccc5)c5ccccn5)CC4)cccc3C2=O)C(=O)N1 (stereo not shown) [GT-03836, 3-(1-oxo-4-((4-(phenyl(pyridin-2-yl)methyl)piperazin-1-yl)methyl)isoindolin-2-yl)piperidine-2,6-dione]	A (A represents 0% ≤ substrate protein remaining % ≤ 50%)	B (B represents substrate protein remaining % > 50%)	B (B represents substrate protein remaining % > 50%)
1000 to 1900	CC1CN(Cc2ccc3c(c2)CN(C2CCC(=O)NC2=O)C3=O)CC(C)N1C(c1ccccc1)c1ccccc1 (stereo not shown) [GT-03872, 3-(5-((4-benzhydryl-3,5-dimethylpiperazin-1-yl)methyl)-1-oxoisoindolin-2-yl)piperidine-2,6-dione]	A (A represents 0% ≤ substrate protein remaining % ≤ 50%)	B (B represents substrate protein remaining % > 50%)	A (A represents 0% ≤ substrate protein remaining % ≤ 50%)
< 500	CC1CN(C(c2ccccc2)c2ccccc2)CC(C)N1Cc1cc2c(cc1F)C(=O)N(C1CCC(=O)NC1=O)C2 (stereo not shown) [GT-03873, 3-(5-((4-benzhydryl-2,6-dimethylpiperazin-1-yl)methyl)-6-fluoro-1-oxoisoindolin-2-yl)piperidine-2,6-dione]	A (A represents 0% ≤ substrate protein remaining % ≤ 50%)	A (A represents 0% ≤ substrate protein remaining % ≤ 50%)	B (B represents substrate protein remaining % > 50%)
< 500	O=C1CCC(N2Cc3cc(CN4CC5CCC4CN5C(c4ccccc4)c4ccccc4)ccc3C2=O)C(=O)N1 (stereo not shown) [GT-03993, 3-(5-((5-benzhydryl-2,5-diazabicyclo[2.2.2]octan-2-yl)methyl)-1-oxoisoindolin-2-yl)piperidine-2,6-dione]	A (A represents 0% ≤ substrate protein remaining % ≤ 50%)	B (B represents substrate protein remaining % > 50%)	A (A represents 0% ≤ substrate protein remaining % ≤ 50%)
< 500	O=C1CCC(N2Cc3cc(CN4CCCN(C(c5ccccc5)c5ccccc5)CC4)ccc3C2=O)C(=O)N1 (stereo not shown) [GT-03994, 3-(5-((4-benzhydryl-1,4-diazepan-1-yl)methyl)-1-oxoisoindolin-2-yl)piperidine-2,6-dione]	A (A represents 0% ≤ substrate protein remaining % ≤ 50%)	B (B represents substrate protein remaining % > 50%)	B (B represents substrate protein remaining % > 50%)
500 to 1000	O=C1CCC(N2Cc3c(ccc(CN4CC5CCC4CN5C(c4ccccc4)c4ccccc4)c3F)C2=O)C(=O)N1 (stereo not shown) [GT-04163, 3-(5-((5-benzhydryl-2,5-diazabicyclo[2.2.2]octan-2-yl)methyl)-4-fluoro-1-oxoisoindolin-2-yl)piperidine-2,6-dione]	A (A represents 0% ≤ substrate protein remaining % ≤ 50%)	B (B represents substrate protein remaining % > 50%)	A (A represents 0% ≤ substrate protein remaining % ≤ 50%)
500 to 1000	O=C1CCC(N2Cc3c(ccc(CN4CCCN(C(c5ccccc5)c5ccccc5)CC4)c3F)C2=O)C(=O)N1 (stereo not shown) [GT-04164, 3-(5-((4-benzhydryl-1,4-diazepan-1-yl)methyl)-4-fluoro-1-oxoisoindolin-2-yl)piperidine-2,6-dione]	A (A represents 0% ≤ substrate protein remaining % ≤ 50%)	B (B represents substrate protein remaining % > 50%)	B (B represents substrate protein remaining % > 50%)
< 500	O=C1CCC(N2Cc3cc(CN4CCN(C(c5ccccn5)c5ccccn5)CC4)ccc3C2=O)C(=O)N1 (stereo not shown) [GT-04383, 3-(5-((4-(di(pyridin-2-yl)methyl)piperazin-1-yl)methyl)-1-oxoisoindolin-2-yl)piperidine-2,6-dione]	A (A represents 0% ≤ substrate protein remaining % ≤ 50%)	B (B represents substrate protein remaining % > 50%)	B (B represents substrate protein remaining % > 50%)
500 to 1000	O=C1CCC(N2Cc3cc(CN4CCN(C(c5ccccn5)c5ccccn5)CC4)c(F)cc3C2=O)C(=O)N1 (stereo not shown) [GT-04384, 3-(5-((4-(di(pyridin-2-yl)methyl)piperazin-1-yl)methyl)-6-fluoro-1-oxoisoindolin-2-yl)piperidine-2,6-dione]	A (A represents 0% ≤ substrate protein remaining % ≤ 50%)	B (B represents substrate protein remaining % > 50%)	B (B represents substrate protein remaining % > 50%)

SMILES	IC50 [1] [nM]	substrate protein remaining % GSPT1 (GSPT1)	substrate protein remaining % IKZF1 (IKZF1)	substrate protein remaining % IKZF3 (IKZF3)
O=C1CCC(N2Cc3c(ccc(CN4CC5CCC(C4)N5C(c4ccccc4)c4ccccc4)c3F)C2=O)C(=O)N1 (stereo not shown) [GT-03725, 3-(5-((8-benzhydryl-3,8-diazabicyclo[3.2.1]octan-3-yl)methyl)-4-fluoro-1-oxoisoindolin-2-yl)piperidine-2,6-dione]	500 to 1000	A (A represents 0% ≤ substrate protein remaining % ≤ 50%)	A (A represents 0% ≤ substrate protein remaining % ≤ 50%)	A (A represents 0% ≤ substrate protein remaining % ≤ 50%)
O=C1CCC(N2Cc3c(ccc(CN4C5CCC4CN(C(c4ccccc4)c4ccccc4)C5)c3F)C2=O)C(=O)N1 (stereo not shown) [GT-03838, 3-(5-((3-benzhydryl-3,8-diazabicyclo[3.2.1]octan-8-yl)methyl)-4-fluoro-1-oxoisoindolin-2-yl)piperidine-2,6-dione]	500 to 1000	A (A represents 0% ≤ substrate protein remaining % ≤ 50%)	A (A represents 0% ≤ substrate protein remaining % ≤ 50%)	A (A represents 0% ≤ substrate protein remaining % ≤ 50%)
